Results reported in ChEMBL document CHEMBL1146905, “Synthesis and evaluation of phenoxy acetic acid derivatives as [corrected] anti-mycobacterial agents” (2006).
Converted amounts (≈) assume the structure as drawn.

Experiments:
Assay type in all cases: functional
[1] = tested on: Mycobacterium tuberculosis; assay: Antimycobacterial activity against Mycobacterium tuberculosis H37Rv by BACTEC-460 radiometric assay
[2] = tested on: Mycobacterium tuberculosis; assay: Antimycobacterial activity against Mycobacterium tuberculosis H37Rv by BACTEC-460 radiometric assay above 6.25 ug/ml
[3] = tested on: Mycobacterium tuberculosis; assay: Antimycobacterial activity against Mycobacterium tuberculosis H37Rv by BACTEC-460 radiometric assay at 6.25 ug/ml

Row | Compound | MIC [1] [µg/mL] | Inhibition [2] [%] | inhibition at 6.25 µg/mL [3] [%]
1 | COc1cc(C2=NN(C(=O)Cc3ccccc3)C(c3ccc(O)cc3)C2)c(C)cc1OCC(=O)O (stereo not drawn) | > 6.25 | 28 | –
2 | COc1cc(C2=NN(C(=O)c3ccc([N+](=O)[O-])cc3)C3CCCC23)c(C)cc1OCC(=O)O (stereo not drawn) | > 6.25 | 26 | –
3 | COc1cc(C2=NN(C(=O)COc3cccc4ccccc34)C3CCCC23)c(C)cc1OCC(=O)O (stereo not drawn) | > 6.25 | 54 | –
4 | NNC(=O)c1ccncc1 [ISONIAZID] | 0.1 (≈ 0.729 µM) | – | 96
5 | COc1cc(C2=NN(C(=O)c3ccccc3)C(c3ccc(O)cc3)C2)c(C)cc1OCC(=O)O (stereo not drawn) | > 6.25 | 72 | –
6 | COc1cc(C2=NN(C(=O)COc3ccc4ccccc4c3)C(Cc3ccccc3)C2)c(C)cc1OCC(=O)O (stereo not drawn) | 0.22 (≈ 0.408 µM) | – | 95
7 | COc1cc(C2=NN(C(=O)COc3ccccc3)C3CCCC23)c(C)cc1OCC(=O)O (stereo not drawn) | > 6.25 | 87 | –
8 | COc1cc(C2=NN(C(=O)Cc3ccccc3)C(Cc3ccccc3)C2)c(C)cc1OCC(=O)O (stereo not drawn) | > 6.25 | 34 | –
9 | COc1cc(C2=NN(C(=O)c3ccccc3)C(Cc3ccccc3)C2)c(C)cc1OCC(=O)O (stereo not drawn) | > 6.25 | 12 | –
10 | COc1cc(C2=NN(C(=O)c3ccc([N+](=O)[O-])cc3)C(c3ccc(O)cc3)C2)c(C)cc1OCC(=O)O (stereo not drawn) | 6.25 (≈ 12.4 µM) | 74 | –
11 | COc1cc(C2=NN(C(=O)c3ccc([N+](=O)[O-])cc3)C(Cc3ccccc3)C2)c(C)cc1OCC(=O)O (stereo not drawn) | > 6.25 | 64 | –
12 | COc1cc(C2=NN(C(=O)COc3ccccc3)C(c3ccc(O)cc3)C2)c(C)cc1OCC(=O)O (stereo not drawn) | 0.1 (≈ 0.204 µM) | – | 99
13 | COc1cc(C2=NN(C(=O)COc3ccc4ccccc4c3)C3CCCC23)c(C)cc1OCC(=O)O (stereo not drawn) | 6.12 (≈ 12.5 µM) | 91 | –
14 | COc1cc(C2=NN(C(=O)COc3ccccc3)C(Cc3ccccc3)C2)c(C)cc1OCC(=O)O (stereo not drawn) | > 6.25 | – | 94
15 | COc1cc(C2=NN(C(=O)COc3cccc4ccccc34)C(c3ccc(O)cc3)C2)c(C)cc1OCC(=O)O (stereo not drawn) | > 6.25 | 61 | –
16 | COc1cc(C2=NN(C(=O)COc3cccc4ccccc34)C(Cc3ccccc3)C2)c(C)cc1OCC(=O)O (stereo not drawn) | > 6.25 | 18 | –
17 | COc1cc(C2=NN(C(=O)Cc3ccccc3)C3CCCC23)c(C)cc1OCC(=O)O (stereo not drawn) | > 6.25 | 21 | –
18 | COc1cc(C2=NN(C(=O)COc3ccc4ccccc4c3)C(c3ccc(O)cc3)C2)c(C)cc1OCC(=O)O (stereo not drawn) | 0.1 (≈ 0.185 µM) | – | 99
19 | COc1cc(C2=NN(C(=O)c3ccccc3)C3CCCC23)c(C)cc1OCC(=O)O (stereo not drawn) | > 6.25 | 24 | –
